Assay results published in patent US20210187077A1, “GLP-1 Agonist Conjugates for Sustained Glycemic Control” (IDAHO STATE UNIVERSITY, priority 2019, published 2021).

Experiment: hydroxyapatite (HA) binding in vitro study (bone mineral affinity)
Protocol: To evaluate the bone mineral affinity of the GLP-1 conjugate described in Example 1, hydroxyapatite (HA) binding in vitro studies were conducted. Briefly, 10 μg of GLP-1 or equivalent amount of GLP-1 conjugate was mixed with 5 mg of HA powder in 500 μL of the binding buffer with various concentrations (double-distilled water (D.D.), 10 mM PBS [pH 7.4], 50 mM PBS [pH 7.4], acetate buffer [pH 4]) . Similarly, tubes containing an equivalent amount of GLP-1 or GLP-1 conjugate in corresponding buffers without HA were used as a negative control. Mixtures were shaken gently at room temperature for 1 hour and then were centrifuged at 10,000 g for 5 minutes. The supernatant was separated and assayed for unbound drug, using a fluorescence spectrometer (λEx 215 nm, λEm 305 nm). The percentage of HA binding was calculated as:
(Intensity of control−the intensity of supernatants)/Intensity of control×100%
Each experiment was measured in triplicate.

## H-HAE GTF TSD VSS YLE GQA A-K(Mal-PEGn-BP)-E FIA WLV KGR —NH2 [GLP-1 conjugate]
Acidic pH (Acetate buffer pH 4 vs PBS pH 7.4) and lower buffer concentration (10 mM vs 50 mM)
  effect of pH and phosphate ion concentration on HA binding capacity: higher binding
Various medium (D.D. water, 10 mM PBS pH 7.4, 50 mM PBS pH 7.4, acetate buffer pH 4), 5 mg HA, 1 hour, room temperature, p<0.01
  binding capacity to HA compared with plain GLP-1 peptide: significantly different binding capacity to HA
